ChEMBL document CHEMBL1201862, “PubChem BioAssay data set” (2004)
Activity calls are given as the source filed them.

How the values were obtained:
[1] = molecular target: Glyceraldehyde-3-phosphate dehydrogenase (Homo sapiens, UniProt P04406)
[2] = molecular target: T1, Alkaline phosphatase, tissue-nonspecific isozyme (Homo sapiens, UniProt P05186); assay: potency against alkaline phosphatase TNAP – biochemical, luminescent, dose response, SAR follow-up (AID 1056)
T1 sequence (P05186 whole entry): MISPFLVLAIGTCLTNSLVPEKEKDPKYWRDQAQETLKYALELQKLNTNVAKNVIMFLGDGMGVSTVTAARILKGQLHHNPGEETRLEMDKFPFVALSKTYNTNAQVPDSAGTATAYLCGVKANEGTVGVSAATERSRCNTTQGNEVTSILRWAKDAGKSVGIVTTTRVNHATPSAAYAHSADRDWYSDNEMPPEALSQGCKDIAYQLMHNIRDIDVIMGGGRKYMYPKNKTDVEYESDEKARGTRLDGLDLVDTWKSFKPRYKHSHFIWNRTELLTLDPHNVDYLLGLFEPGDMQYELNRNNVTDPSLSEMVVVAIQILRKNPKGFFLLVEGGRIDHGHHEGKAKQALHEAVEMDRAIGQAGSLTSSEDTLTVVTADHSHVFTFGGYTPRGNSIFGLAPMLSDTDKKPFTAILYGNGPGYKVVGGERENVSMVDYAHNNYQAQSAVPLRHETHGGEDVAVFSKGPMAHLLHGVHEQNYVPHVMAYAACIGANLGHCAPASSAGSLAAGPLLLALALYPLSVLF

[3] = molecular target: SUMO E1/E2 (Homo sapiens, UniProt P63279+Q9UBE0+Q9UBT2); assay: SAR analysis of SUMOylation using HTRF in an in-Vitro dose response assay. [Related pubchem assays (depositor defined):AID2006, AID2011, AID2018, AID2069, AID2658]; assay type: functional
Chain of SUMO E1/E2 (Q9UBE0 whole entry): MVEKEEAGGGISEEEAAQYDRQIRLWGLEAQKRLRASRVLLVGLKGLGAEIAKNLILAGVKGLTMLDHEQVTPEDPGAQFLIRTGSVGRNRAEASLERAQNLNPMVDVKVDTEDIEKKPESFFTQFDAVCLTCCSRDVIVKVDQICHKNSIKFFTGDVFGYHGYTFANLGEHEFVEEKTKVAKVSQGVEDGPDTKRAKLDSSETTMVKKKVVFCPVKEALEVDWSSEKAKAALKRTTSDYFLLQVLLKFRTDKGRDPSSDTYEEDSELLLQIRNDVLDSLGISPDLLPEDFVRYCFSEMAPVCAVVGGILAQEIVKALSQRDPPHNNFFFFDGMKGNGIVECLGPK
Chain of SUMO E1/E2 (Q9UBT2 whole entry): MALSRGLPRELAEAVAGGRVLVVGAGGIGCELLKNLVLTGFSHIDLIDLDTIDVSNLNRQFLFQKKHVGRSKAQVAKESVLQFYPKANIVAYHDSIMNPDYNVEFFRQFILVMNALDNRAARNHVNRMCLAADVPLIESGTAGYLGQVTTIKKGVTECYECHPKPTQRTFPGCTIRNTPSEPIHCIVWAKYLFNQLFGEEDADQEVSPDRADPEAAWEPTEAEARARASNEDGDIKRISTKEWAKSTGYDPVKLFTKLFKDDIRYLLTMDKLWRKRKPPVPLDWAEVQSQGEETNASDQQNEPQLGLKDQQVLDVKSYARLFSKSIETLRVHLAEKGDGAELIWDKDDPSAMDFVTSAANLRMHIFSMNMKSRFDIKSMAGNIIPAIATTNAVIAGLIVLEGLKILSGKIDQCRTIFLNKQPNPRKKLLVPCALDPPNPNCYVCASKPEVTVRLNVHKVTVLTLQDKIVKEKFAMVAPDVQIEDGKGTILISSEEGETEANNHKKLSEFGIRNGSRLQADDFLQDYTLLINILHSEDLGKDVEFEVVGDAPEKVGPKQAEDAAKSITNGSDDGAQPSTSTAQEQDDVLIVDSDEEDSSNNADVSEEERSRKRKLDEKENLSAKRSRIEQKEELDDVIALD
Chain of SUMO E1/E2 (P63279 whole entry): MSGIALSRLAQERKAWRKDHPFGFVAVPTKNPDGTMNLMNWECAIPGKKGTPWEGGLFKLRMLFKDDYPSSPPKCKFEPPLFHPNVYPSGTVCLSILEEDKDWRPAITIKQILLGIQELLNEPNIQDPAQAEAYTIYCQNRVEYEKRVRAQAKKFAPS

[4] = Luminescence Cell-Based Dose Retest to Confirm Inhibitors of Cancer Stem Cells. [Related pubchem assays (depositor defined):AID2717, AID2721]; assay type: functional; details: Homo sapiens
[5] = molecular target: T2, Ubiquitin-conjugating enzyme E2 N (Homo sapiens, UniProt P61088); assay type: functional;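 also: Dose-response confirmation in a TR-FRET assay detecting UBC13-driven polyubiquitin chain formation, inhibition measured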
T2 sequence (P61088 whole entry): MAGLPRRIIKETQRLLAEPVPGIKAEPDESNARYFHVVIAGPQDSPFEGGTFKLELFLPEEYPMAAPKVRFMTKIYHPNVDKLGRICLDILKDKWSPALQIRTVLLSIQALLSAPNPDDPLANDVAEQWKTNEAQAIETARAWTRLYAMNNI

[6] = molecular target: Intestinal-type alkaline phosphatase (Mus musculus, UniProt P24822); assay: PubChem AID 488785; assay type: functional
Chain of Intestinal-type alkaline phosphatase (Mus musculus, UniProt P24822) (P24822 whole entry): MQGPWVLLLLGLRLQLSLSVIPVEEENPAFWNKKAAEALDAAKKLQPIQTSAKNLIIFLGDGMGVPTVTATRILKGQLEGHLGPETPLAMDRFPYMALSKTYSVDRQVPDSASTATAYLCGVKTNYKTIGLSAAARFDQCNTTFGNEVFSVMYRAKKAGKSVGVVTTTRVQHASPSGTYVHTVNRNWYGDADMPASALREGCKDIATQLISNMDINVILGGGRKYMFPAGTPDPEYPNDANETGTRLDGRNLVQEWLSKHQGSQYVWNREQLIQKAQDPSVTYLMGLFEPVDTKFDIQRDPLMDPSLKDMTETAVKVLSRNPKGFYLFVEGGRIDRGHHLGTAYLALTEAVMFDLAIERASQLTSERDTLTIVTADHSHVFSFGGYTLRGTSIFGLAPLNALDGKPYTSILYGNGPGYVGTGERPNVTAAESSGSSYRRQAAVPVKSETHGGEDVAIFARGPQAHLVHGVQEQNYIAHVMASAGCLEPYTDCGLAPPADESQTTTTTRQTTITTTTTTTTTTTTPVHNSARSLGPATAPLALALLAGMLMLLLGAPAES

[7] = molecular target: T1, Alkaline phosphatase, tissue-nonspecific isozyme; assay: TNAP enzyme inhibition by screening hits, dose response, selectivity assay for mouse IAP inhibitor project, biochemical, human TNAP, uHTS hits (AID 488906); assay type: functional
[8] = molecular target: Intestinal-type alkaline phosphatase (Homo sapiens, UniProt P09923); assay: inhibition of human intestinal alkaline phosphatase – biochemical, dose response (AID 488876); assay type: functional
Chain of Intestinal-type alkaline phosphatase (Homo sapiens, UniProt P09923) (P09923 whole entry): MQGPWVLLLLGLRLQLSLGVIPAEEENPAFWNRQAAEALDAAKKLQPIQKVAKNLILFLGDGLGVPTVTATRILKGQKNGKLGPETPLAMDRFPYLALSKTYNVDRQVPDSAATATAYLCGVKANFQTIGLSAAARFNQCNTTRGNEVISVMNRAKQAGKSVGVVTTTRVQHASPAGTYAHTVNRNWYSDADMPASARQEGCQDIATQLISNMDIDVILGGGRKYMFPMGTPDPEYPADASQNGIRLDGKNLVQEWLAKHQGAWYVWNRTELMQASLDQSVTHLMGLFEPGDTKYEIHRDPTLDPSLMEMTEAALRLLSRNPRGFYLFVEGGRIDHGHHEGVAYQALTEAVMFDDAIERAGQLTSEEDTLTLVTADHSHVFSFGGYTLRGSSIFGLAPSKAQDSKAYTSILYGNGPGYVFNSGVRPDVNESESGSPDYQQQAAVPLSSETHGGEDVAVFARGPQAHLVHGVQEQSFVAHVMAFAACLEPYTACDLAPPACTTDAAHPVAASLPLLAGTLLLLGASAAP

[9] = molecular target: T3, Endoribonuclease toxin MazF (Escherichia coli K-12, UniProt P0AE70); assay: activation of MazEF endoribonuclease cleavage – biochemical, fluorescence, single-stranded RNA substrate, uHTS hits, dose response (AID 588481); assay type: functional
T3 sequence (P0AE70 whole entry): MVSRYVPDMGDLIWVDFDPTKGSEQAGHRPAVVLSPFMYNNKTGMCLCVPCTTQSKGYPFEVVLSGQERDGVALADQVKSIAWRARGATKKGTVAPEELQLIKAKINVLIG

[10] = molecular target: T3, Endoribonuclease toxin MazF; assay: substrate-only fluorescence increase artefacts – biochemical, single-stranded RNase substrate, counter-screen for MazEF activator project, dose response (AID 588502); assay type: functional
[11] = A549 cell cytotoxicity, dose response, cytotoxicity control, plate reader, cherry-pick, antagonist series (AID 743412); assay type: functional, cell-based
[12] = toxicity toward HepG2 liver cells – cell-based, plate reader, cherry-pick, antagonist series, cytotoxicity control, dose response (AID 743416); assay type: functional
[13] = blockers of bursicon-stimulated LGR2 cAMP reporter – cell-based, HEK293, CRE-luciferase reporter, cherry pick, set 2, dose response (AID 743343); assay type: functional;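 also: transfected cells were stimulated with diluted bursicon conditioned medium after compound addition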
[14] = blockade of melanocortin 4 receptor signaling – cell-based, plate reader, cherry pick, counter-screen for LGR2 antagonist project, dose response (AID 743444); assay type: functional;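 also: transfected HEK 293 cells stimulated with alpha-MSH peptide; potency of inhibitors of the alpha-MSH evoked signal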
[15] = viability loss in HEK293 cells – cell-based, plate reader, cherry-picked samples, cytotoxicity control, dose response (AID 743446); assay type: functional
[16] = molecular target: T4, Hexokinase HKDC1 (Homo sapiens, UniProt Q2TB90); assay: activation of HKDC1 glucose phosphorylation – biochemical, W721R variant, dose response (AID 504730); assay type: functional
T4 sequence (Q2TB90 whole entry): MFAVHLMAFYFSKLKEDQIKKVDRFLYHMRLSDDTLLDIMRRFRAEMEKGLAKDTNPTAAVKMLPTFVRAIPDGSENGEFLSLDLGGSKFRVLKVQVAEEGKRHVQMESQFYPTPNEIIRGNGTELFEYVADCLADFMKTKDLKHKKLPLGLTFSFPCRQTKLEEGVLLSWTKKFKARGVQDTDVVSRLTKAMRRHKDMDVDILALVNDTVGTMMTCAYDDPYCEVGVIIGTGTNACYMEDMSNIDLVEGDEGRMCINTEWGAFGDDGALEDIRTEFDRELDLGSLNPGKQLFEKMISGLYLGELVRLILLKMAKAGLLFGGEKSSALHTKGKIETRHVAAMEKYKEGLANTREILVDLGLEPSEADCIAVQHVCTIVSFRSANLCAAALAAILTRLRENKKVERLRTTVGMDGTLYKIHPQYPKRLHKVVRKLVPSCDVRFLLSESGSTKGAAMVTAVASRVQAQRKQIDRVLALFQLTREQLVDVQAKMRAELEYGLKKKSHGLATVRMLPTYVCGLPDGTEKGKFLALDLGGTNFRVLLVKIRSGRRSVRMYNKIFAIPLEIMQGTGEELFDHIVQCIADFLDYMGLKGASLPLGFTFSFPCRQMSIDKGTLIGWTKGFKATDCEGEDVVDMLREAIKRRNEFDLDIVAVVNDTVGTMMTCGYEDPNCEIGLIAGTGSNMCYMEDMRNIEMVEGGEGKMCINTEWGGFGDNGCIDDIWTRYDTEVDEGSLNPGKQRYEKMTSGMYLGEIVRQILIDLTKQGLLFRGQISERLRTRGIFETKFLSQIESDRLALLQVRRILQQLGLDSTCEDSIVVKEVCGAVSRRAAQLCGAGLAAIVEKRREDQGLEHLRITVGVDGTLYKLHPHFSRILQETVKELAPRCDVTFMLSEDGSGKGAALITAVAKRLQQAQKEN

[17] = molecular target: Nonstructural protein 1 (Influenza A virus, UniProt Q194T2); assay type: functional, Influenza A virus (A/California/07/2009(H1N1))
Chain of Nonstructural protein 1 (Q194T2 whole entry): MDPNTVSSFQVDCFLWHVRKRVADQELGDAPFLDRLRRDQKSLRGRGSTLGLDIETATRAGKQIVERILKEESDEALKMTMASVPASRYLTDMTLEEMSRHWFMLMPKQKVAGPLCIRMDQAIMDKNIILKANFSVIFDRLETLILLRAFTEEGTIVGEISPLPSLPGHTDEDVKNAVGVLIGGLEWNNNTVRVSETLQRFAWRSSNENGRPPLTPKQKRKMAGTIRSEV

[18] = molecular target: T5, Hexokinase-1 (Homo sapiens, UniProt P19367); assay: HK1 enzyme activation by HKDC1 hits – biochemical, selectivity assay for HKDC1 activator project, dose response (AID 504762); assay type: functional
T5 sequence (P19367 whole entry): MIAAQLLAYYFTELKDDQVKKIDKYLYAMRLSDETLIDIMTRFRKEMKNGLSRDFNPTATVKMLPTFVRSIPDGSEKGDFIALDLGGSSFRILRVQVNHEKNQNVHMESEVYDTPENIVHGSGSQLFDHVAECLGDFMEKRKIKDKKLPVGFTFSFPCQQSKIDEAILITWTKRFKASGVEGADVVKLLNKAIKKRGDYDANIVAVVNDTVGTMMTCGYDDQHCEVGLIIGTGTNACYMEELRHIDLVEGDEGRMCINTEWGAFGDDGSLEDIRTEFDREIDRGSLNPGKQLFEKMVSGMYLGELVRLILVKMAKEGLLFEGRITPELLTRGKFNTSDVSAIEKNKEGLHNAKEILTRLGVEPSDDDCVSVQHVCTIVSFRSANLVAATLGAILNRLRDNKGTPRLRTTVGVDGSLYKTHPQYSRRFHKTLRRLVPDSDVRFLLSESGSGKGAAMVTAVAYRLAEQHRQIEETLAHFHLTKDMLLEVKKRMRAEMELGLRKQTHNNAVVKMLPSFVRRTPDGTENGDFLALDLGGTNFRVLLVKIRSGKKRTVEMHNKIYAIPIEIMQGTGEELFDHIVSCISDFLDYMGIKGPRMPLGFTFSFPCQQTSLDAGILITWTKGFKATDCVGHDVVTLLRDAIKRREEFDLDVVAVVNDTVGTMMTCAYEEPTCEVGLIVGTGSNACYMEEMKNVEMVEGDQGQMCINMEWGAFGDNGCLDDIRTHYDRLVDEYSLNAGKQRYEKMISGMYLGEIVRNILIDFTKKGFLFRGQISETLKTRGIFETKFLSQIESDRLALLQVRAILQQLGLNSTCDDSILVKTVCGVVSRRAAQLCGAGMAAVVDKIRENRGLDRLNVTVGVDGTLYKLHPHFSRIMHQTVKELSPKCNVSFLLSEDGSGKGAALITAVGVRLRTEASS

[19] = molecular target: Heat shock protein HSP 90-alpha (Homo sapiens, UniProt P07900); assay type: functional, organism-based
[20] = Trypanosoma cruzi growth suppression in host cells – NIH3T3 host cells, beta-gal luminescence, confirmation (AID 2044); assay type: functional, cell-based;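 also: intracellular parasites grown in NIH/3T3 mouse fibroblasts as host cells; luminescent beta-galactosidase reporter signal from transgenic T. cruzi replicating inside host cells; inhibitors lower the luminescence signal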
[21] = NIH3T3 cell viability loss – ATP luminescence, mouse fibroblasts, counter-screen, dose response (AID 2010); assay type: functional, cell-based;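 also: cells exposed to compound for about 90 hours before reading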
[22] = viability loss of HMLE_sh_eGFP cells – cell-based, luminescence, counter-screen for HMLE_sh_ECad selective toxicity project, dose response (AID 463074); assay type: functional, Homo sapiens;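 also: HMLE human mammary epithelial cells expressing control shRNA against eGFP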
[23] = molecular target: T6, Lysine-specific demethylase 4C (Homo sapiens, UniProt Q9H3R0); assay: inhibition of JMJD2C H3K9me3 demethylation – biochemical, DELFIA europium, cherry-picked samples, dose response (AID 488835); assay type: functional
T6 sequence (Q9H3R0 whole entry): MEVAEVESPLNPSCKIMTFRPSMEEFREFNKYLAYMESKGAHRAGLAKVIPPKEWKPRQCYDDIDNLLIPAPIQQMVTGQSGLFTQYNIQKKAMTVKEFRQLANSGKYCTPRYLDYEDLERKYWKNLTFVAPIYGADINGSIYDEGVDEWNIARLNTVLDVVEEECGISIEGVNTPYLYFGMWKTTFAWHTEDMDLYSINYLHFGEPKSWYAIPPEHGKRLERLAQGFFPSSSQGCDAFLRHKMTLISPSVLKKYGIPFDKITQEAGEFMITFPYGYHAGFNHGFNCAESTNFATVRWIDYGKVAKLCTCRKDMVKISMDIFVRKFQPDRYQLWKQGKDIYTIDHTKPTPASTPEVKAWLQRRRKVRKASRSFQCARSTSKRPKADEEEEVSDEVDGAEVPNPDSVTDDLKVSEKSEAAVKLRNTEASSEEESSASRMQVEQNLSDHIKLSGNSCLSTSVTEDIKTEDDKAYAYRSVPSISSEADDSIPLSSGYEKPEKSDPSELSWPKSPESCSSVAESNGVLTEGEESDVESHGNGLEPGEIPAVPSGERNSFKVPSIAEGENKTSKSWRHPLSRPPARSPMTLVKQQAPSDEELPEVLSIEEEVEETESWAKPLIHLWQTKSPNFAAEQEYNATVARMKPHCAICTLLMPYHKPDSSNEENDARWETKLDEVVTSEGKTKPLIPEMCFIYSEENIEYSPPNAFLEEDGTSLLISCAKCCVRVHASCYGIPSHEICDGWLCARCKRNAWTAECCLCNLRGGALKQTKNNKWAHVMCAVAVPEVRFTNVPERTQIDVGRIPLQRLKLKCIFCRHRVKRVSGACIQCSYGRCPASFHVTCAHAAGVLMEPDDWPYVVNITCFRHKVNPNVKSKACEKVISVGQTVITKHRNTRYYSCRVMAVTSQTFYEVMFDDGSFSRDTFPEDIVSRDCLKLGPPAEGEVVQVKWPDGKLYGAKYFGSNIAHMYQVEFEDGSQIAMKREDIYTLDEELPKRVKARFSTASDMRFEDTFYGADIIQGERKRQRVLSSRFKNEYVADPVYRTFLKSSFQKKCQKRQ

[24] = tested on: H9c2; assay: cells; assay type: functional, cell-based; details: Rattus norvegicus, H9c2, Myocardium;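 also: confirmatory concentration-response retest of ultra-high-throughput screening hits for modulation of myocardial damage; cell death induced by hydrogen peroxide oxidative stress; compound pretreatment for 60 min then peroxide exposure for 2 h; potency is for protecting the cells against peroxide damage rather than for killing them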

Chain of Glyceraldehyde-3-phosphate dehydrogenase (P04406 whole entry): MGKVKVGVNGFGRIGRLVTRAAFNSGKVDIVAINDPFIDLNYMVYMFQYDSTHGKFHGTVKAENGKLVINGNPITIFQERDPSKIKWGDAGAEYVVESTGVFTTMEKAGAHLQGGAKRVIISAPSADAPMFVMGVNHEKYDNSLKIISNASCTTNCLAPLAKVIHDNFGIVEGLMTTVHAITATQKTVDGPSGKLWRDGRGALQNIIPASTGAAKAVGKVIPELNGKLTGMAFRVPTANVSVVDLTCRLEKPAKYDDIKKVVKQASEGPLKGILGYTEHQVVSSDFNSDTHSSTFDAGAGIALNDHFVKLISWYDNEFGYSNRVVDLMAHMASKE

SMILES: CCOc1ccc(OCC)c(S(=O)(=O)Nc2cccnc2)c1
- IC50 [1]: > 100 µM (not active)
- IC50 [2]: 4.44 µM (active)

SMILES: C/C(=N\OCc1nc2ccccc2c(=O)n1/N=C/c1cc(Br)ccc1O)c1ccccc1
- IC50 [3]: 14.7 µM (active)

SMILES: O=C(Nc1ccc(Cl)c(C(F)(F)F)c1)NC1CC2CCCC(C1)N2Cc1ccccc1 (configuration not stated)
- AC50 [4]: 6.55 µM (active)
- IC50 [5]: > 20 µM (inactive)
- IC50 [6]: 11.2 µM (active)
- IC50 [7]: > 100 µM (inactive)
- IC50 [8]: > 100 µM (inactive)
- EC50 [9]: > 99 µM (inactive)
- EC50 [10]: > 99 µM (inactive)
- AC50 [11]: 11.4 µM (active)
- AC50 [12]: 12.6 µM (active)
- AC50 [13]: 39 µM (active)
- AC50 [14]: 33.5 µM (active)
- AC50 [15]: 29.6 µM (active)

SMILES: CC(=NNC(=S)N1CC2CCC(CC2)C1)c1ccncn1
- EC50 [16]: 13.3 µM (active)
- IC50 [17]: 3.98 µM (active)
- EC50 [18]: > 80 µM (inactive)
- AC50 [19]: 3.03 µM (active)

SMILES: COc1ccc(C(=O)CCN2CCN(c3ccccc3F)CC2)cc1
- EC50 [20]: 2.19 µM (active)
- EC50 [21]: 7.83 µM (active)
- AC50 [4]: 17.2 µM (active)
- AC50 [22]: 35.3 µM (active)

SMILES: CN1C(=O)C(=Cc2ccc(N3CCCCCC3)cc2)C(=O)N(C)C1=O
- AC50 [23]: 13.1 µM (active)

SMILES: O=C(O)c1ccc2c(c1)C1C=CCC1C(c1ccccc1)N2 (configuration not stated)
- IC50 [3]: > 100 µM (inactive)

SMILES: O=C(O)c1cc(-c2ccc(F)cc2)n[nH]1
- IC50 [1]: > 100 µM (not active)
- IC50 [2]: 4.74 µM (active)

SMILES: COc1ccc(-c2nn3c(-c4ccco4)nnc3s2)cc1OC
- AC50 [23]: 10.3 µM (active)
- IC50 [24]: 11.2 µM (active)

SMILES: Cc1ccc(NC(=S)NCc2ccccc2)cc1S(=O)(=O)N1CCCCC1
- IC50 [6]: 1.4 µM (active)
- IC50 [7]: > 100 µM (inactive)
- IC50 [8]: > 100 µM (inactive)
